Patent US5434150A, “Condensed 5-membered heterocyclic compounds, processes for preparing them and pharmaceutical preparations containing these compounds” (Dr. Karl Thomae GmbH, priority 1991, dated 1995)
Where a name gives a salt, the structure may show the parent alone. Read-outs that look alike come from different tables or passages of the source.

Experiments:
Human Thrombocytes = assay: Fibrinogen binding to human thrombocytes (fibrinogen binding test)
Protocol: 1. Fibrinogen Binding to Human Thrombocytes The blood obtained by puncturing an antecubital vein is anticoagulated with trisodium citrate (final concentration: 13 mM) and centrifuged for 10 minutes at 170× g. The supernatant platelet-rich plasma is poured onto a Sepharose 2B column (Pharmacia) and eluted with a solution of 90 mM common salt, 14 mM trisodium citrate, 5 mM glucose and 50 mM tris(hydroxymethyl)aminomethane, adjusted to pH 7.4. The gel-filtered platelets (GFP) appearing before the plasma proteins are used for the binding experiments. 50 μl of a 60 mM calcium chloride solution, 50 μl of a 0.6 mM adenosine diphosphate solution, 100 μl of substance solution or solvent and 50 μl of fibrinogen solution (containing 3 μg of ^125 fibrinogen) are added to 750 μl of GFP and incubated for 20 minutes at ambient temperature. The non-specific binding is determined in the presence of 3 mg/ml of cold fibrinogen. 900 μl of the incubated material are carefully pipetted onto 250 μl of silicon oil (AP 38: AR 20, 1:2 v/v, Wacker Chemie) in Eppendorf tubes and centrifuged for 2 minutes at 10,000× g. The aqueous supernatant and some of the oil are drawn off, the tips of the tubes are cut off together with the platelet pellet and the quantity of bound fibrinogen is determined in a gamma counter. The concentration of substance which brings about a 50% inhibition in fibrinogen binding is determined from a series of concentrations and is given as the IC50 value. | *^125 I fibrogen was replaced by […] |e.

[1] = tested on: platelet aggregation (platelet-rich plasma); assay: Antithrombotic activity: inhibition of collagen-induced platelet aggregation in platelet-rich plasma (Born and Cross); assay type: cell-based, human (healthy volunteers); conditions: 50% change in optical density, human platelet-rich plasma, 10 min preincubation
Protocol: 2. Antithrombotic Activity Method The thrombocyte aggregation is measured using the Born and Cross method (J. Physiol. 170:397 (1964)) in platelet-rich plasma taken from healthy volunteers. To inhibit coagulation the blood is mixed with 3.14% sodium citrate in a ratio by volume of 1:10. Collagen-induced aggregation The pattern of the decrease in optical density of the platelet suspension is photometrically measured and recorded after the addition of aggregation-triggering substance. The rate of aggregation is concluded from the angle of inclination of the density curve. The point on the curve where there is maximum light transmittance is used to calculate the optical density. The amount of collagen used is as small as possible but sufficient to produce an irreversible reaction curve. Standard commercial collagen produced by Hormonchemie of Munich is used. Before the addition of the collagen the plasma is incubated for 10 minutes with the substance at […]. From the measurements obtained an EC50 is determined graphically, indicating a 50% change in the optical density in terms of the inhibition of aggregation.

[2] = 125I fibrinogen, 50% inhibition of fibrinogen binding, gel-filtered human platelets, ADP, 20 min ambient temperature, read-out: Fibrinogen binding test IC50
[3] = *: 125I fibrinogen replaced by 3H-(3S,5S)-5-[(amidino-biphenylyl)-oxymethyl]-carboxymethyl-pyrrolidinone ligand, read-out: Fibrinogen binding test IC50 (values marked *)

| SMILES | IC50 (Human Thrombocytes; [2]) | EC50 [1] | IC50 (Human Thrombocytes; [3]) |
| --- | --- | --- | --- |
| N=C(N)c1ccc(-c2nc3cc(NC(=O)CCC(=O)O)ccc3[nH]2)cc1 [1(1), 2-(4-amidino-phenyl)-5(6)-[(2-carboxy-ethyl)-carbonyl-amino]-benzimidazole] | 600 nM | 6600 nM |  |
| N=C(N)c1ccc(-c2nc3cc(C(=O)NCCC(=O)O)ccc3[nH]2)cc1 [1(2), 2-(4-amidino-phenyl)-5(6)-[(2-carboxy-ethyl)-aminocarbonyl]-benzimidazole-hydrochloride] |  | 3300 nM | 720 nM |
| N=C(N)c1ccc(-c2nc3cc(C(=O)NCCC(=O)O)ccc3n2Cc2ccccc2)cc1 [1(62), 2-(4-amidino-phenyl)-1-benzyl-5-[(2-carboxy-ethyl)-aminocarbonyl]-benzimidazole-hydrochloride] |  |  | 38 nM |
| N=C(N)c1ccc(-c2nc3cc(C(=O)NCCC(=O)O)ccc3n2CCCN2CCSCC2)cc1 [1(73), 2-(4-amidino-phenyl)-5-[(2-carboxy-ethyl)-aminocarbonyl]-1-(3-thiomorpholino-propyl)-benzimidazole] |  | 160 nM | 49 nM |
| N=C(N)c1ccc(-c2nc3cc(C(=O)NCCC(=O)O)ccc3n2CCCN2CC[S+]([O-])CC2)cc1 [1(74), 2-(4-amidino-phenyl)-5-[(2-carboxy-ethyl)-aminocarbonyl]-1-[3-(S-oxido-thiomorpholino)-propyl]-benzimidazole] |  | 310 nM | 120 nM |
| N=C(N)c1ccc(-c2nc3cc(C(=O)NCCC(=O)O)ccc3n2CCCN2CCS(=O)(=O)CC2)cc1 [1(75), 2-(4-amidino-phenyl)-5-[(2-carboxy-ethyl)-aminocarbonyl]-1-[3-(S,S-dioxido-thiomorpholino)-propyl]-benzimidazole] |  | 1100 nM | 230 nM |
| N=C(N)c1ccc(-c2nc3cc(C(=O)NCCC(=O)O)ccc3n2CCCN)cc1 [1(76), 2-(4-amidino-phenyl)-1-(3-amino-propyl)-5-[(2-carboxy-ethyl)-aminocarbonyl]-benzimidazole-diacetate] |  | 1150 nM |  |
| Cn1c(-c2ccc(C(=N)N)cc2)[n+]([O-])c2cc(C(=O)NCCC(=O)O)ccc21 [1(79), 2-(4-amidino-phenyl)-5-[(2-carboxy-ethyl)-aminocarbonyl]-1-methyl-benzimidazole-3-oxide] | 41 nM | 80 nM |  |
| N=C(N)c1ccc(OCc2nc3cc(OCC(=O)O)ccc3[nH]2)cc1 [1(135), 2-[(4-amidino-phenyl)-oxymethyl]-5(6)-carboxymethoxy-benzimidazole] | 800 nM | 7600 nM |  |
| N=C(N)c1ccc(-c2nc3cc(C(=O)NCCC(=O)O)ccc3n2CCN2CCN(Cc3ccccc3)CC2)cc1 [1(136), 2-(4-amidino-phenyl)-1-[2-(4-benzyl-piperazino)-ethyl]-5-[(2-carboxy-ethyl)-aminocarbonyl]-benzimidazole] | 30 nM | 80 nM |  |
| NCc1ccc(-c2nc3cc(C(=O)NCCC(=O)O)ccc3n2CCCN2CCSCC2)cc1 [1(137), 2-(4-aminomethyl-phenyl)-5-[(2-carboxy-ethyl)-aminocarbonyl]-1-(3-thiomorpholino-propyl)-benzimidazole] |  | 7000 nM | 1800 nM |
| N=C(N)c1ccc(-c2nc3cc(C(=O)NCCC(=O)O)ccc3n2CCCC(=O)O)cc1 [1(138), 2-(4-amidino-phenyl)-5-[(2-carboxy-ethyl)-aminocarbonyl]-1-(3-carboxy-propyl)-benzimidazole] |  | 3600 nM | 1500 nM |
| CNc1cc2c(cc1C(=O)NCCC(=O)O)nc(-c1ccc(C(=N)N)cc1)n2C [1(139), 2-(4-amidino-phenyl)-5-[(2-carboxy-ethyl)-aminocarbonyl]-1-methyl-6-methylamino-benzimidazole] |  | 1500 nM | 410 nM |
| CN(CC(=O)O)c1cc2c(cc1C(=O)NCCC(=O)O)nc(-c1ccc(C(=N)N)cc1)n2C [1(140), 2-(4-amidino-phenyl)-5-[(2-carboxy-ethyl)-aminocarbonyl]-6-(N-carboxymethyl-methylamino)-1-methyl-benzimidazole] |  | 750 nM | 220 nM |
| Cn1c(-c2ccc(C(=N)N)cc2)nc2c(=O)n(CCCCC(=O)O)c(=O)n(C)c21 [1(160), 8-(4-amidino-phenyl)-1-(4-carboxy-butyl)-3,9-dimethyl-xanthine] |  | 70 nM | 7.5 nM |
| COC(=O)CCNC(=O)c1cnc2c(c1)nc(-c1ccc(C(=N)N)cc1)n2C [3(19), 2-(4-amidino-phenyl)-6-[(2-methoxycarbonyl-ethyl)-aminocarbonyl]-3-methyl-imidazo[4,5-b]pyridine] |  | 330 nM | 280 nM |
| COC(=O)CCNC(=O)c1ccc2c(c1)nc(-c1ccc(C(=N)N)cc1)n2Cc1ccccc1 [3(48), 2-(4-amidino-phenyl)-1-benzyl-5-[(2-methoxycarbonyl-ethyl)-aminocarbonyl]-benzimidazole-hydrochloride] |  | 6400 nM | 7000 nM |
| COC(=O)CCNC(=O)c1ccc2c(c1)nc(-c1ccc(C(=N)N)cc1)n2Cc1cccnc1 [3(52), 2-(4-amidino-phenyl)-5-[(2-methoxycarbonyl-ethyl)-aminocarbonyl]-1-(3-pyridylmethyl)-benzimidazole] |  | 9500 nM | 4800 nM |
| COC(=O)CCNC(=O)c1ccc2c(c1)nc(-c1ccc(C(=N)N)cc1)n2CCCN1CCSCC1 [3(59), 2-(4-amidino-phenyl)-5-[(2-methoxycarbonyl-ethyl)-aminocarbonyl]-1-(3-thiomorpholino-propyl)-benzimidazole] |  | 3800 nM | 2000 nM |
| CCCCCCCCCCCCCCn1c(-c2ccc(C(=N)N)cc2)nc2cc(C(=O)NCCC(=O)OC)ccc21 [3(119), 2-(4-amidino-phenyl)-5-[(2-methoxycarbonyl-ethyl)-aminocarbonyl]-1-n-tetradecyl-benzimidazole] |  | 39000 nM | 4600 nM |
| COC(=O)CCCn1c(-c2ccc(C(=N)N)cc2)nc2cc(C(=O)NCCC(=O)OC)ccc21 [3(120), 2-(4-amidino-phenyl)-5-[(2-methoxycarbonyl-ethyl)-aminocarbonyl]-1-(3-methoxycarbonyl-propyl)-benzimidazole-hydrochloride] |  | 2000 nM | 1300 nM |
| COC(=O)CCNC(=O)c1ccc2c(c1)nc(-c1ccc(C(=N)N)cc1)n2CCCC(=O)O [3(121), 2-(4-amidino-phenyl)-1-(3-carboxy-propyl)-5-[(2-methoxycarbonyl-ethyl)-aminocarbonyl]-benzimidazole] |  | 13000 nM | 15000 nM |
| COC(=O)CCNC(=O)c1ccc2c(c1)nc(-c1ccc(C(=N)N)cc1)n2CCCCc1ccccc1 [3(122), 2-(4-amidino-phenyl)-5-[(2-methoxycarbonyl-ethyl)-aminocarbonyl]-1-(4-phenyl-butyl)-benzimidazole] |  | 8600 nM | 4000 nM |
| CNc1cc2c(cc1C(=O)NCCC(=O)OC)nc(-c1ccc(C(=N)N)cc1)n2C [3(123), 2-(4-amidino-phenyl)-5-[(2-methoxycarbonyl-ethyl)-aminocarbonyl]-1-methyl-6-methylamino-benzimidazole-hydrochloride-hydrogen acetate] |  | 12000 nM | 25000 nM |
| COC(=O)CCNC(=O)c1cc2nc(-c3ccc(C(=N)N)cc3)n(C)c2cc1N(C)CC(=O)OC [3(124), 2-(4-amidino-phenyl)-5-[(2-methoxycarbonyl-ethyl)-aminocarbonyl]-6-(N-methoxycarbonylmethyl-methylamino)-1-methyl-benzimidazole-hydrochloride] |  | 2800 nM | 17000 nM |
| COC(=O)CCNC(=O)c1ccc2c(c1)nc(-c1ccc(C(=N)N)cc1)n2CCc1cc(Br)c(N)c(Br)c1 [3(125), 2-(4-amidino-phenyl)-1-[2-(4-amino-3f5-dibromo-phenyl)-ethyl]-5-[(2-methoxycarbonyl-ethyl)-aminocarbonyl]-benzimidazole] | 2000 nM | 250 nM |  |
| COC(=O)CCNC(=O)c1ccc2c(c1)nc(-c1ccc(C(=N)N)cc1)n2CCC(c1ccccc1)c1ccccc1 [3(126), 2-(4-amidino-phenyl)-1-(3,3-diphenyl-propyl)-5-[(2-methoxycarbonyl-ethyl)-aminocarbonyl]-benzimidazole] | 2200 nM | 9900 nM |  |
| COC(=O)COc1ccc2[nH]c(COc3ccc(C(=N)N)cc3)nc2c1 [Example 3, 2-[(4-Amidino-phenyl)-oxymethyl]-5(6)-methoxycarbonyl-methoxy-benzimidazole-hydrochloride] |  | 1200 nM |  |
